Entries after “also recorded” stand apart in the source; their conditions may differ. Where two headings read alike, the source gives them in different places.
How the values were obtained:
plasma protein = settings: rabbits; cited from earlier work
[1] = Clinical observation for adverse effects / safety testing of a trial IV dose; format: in vivo, horses
Protocol: The paste was transferred to a 60 mL syringe (Becton-Dickinson) and stored at room temperature until administration. For IV formulation, crushed tablets were dissolved in a vehicle consisting of 10% v/v N,N-dimethylacetamide (EMD Millipore, Billerica, MA, USA), 17% v/v propylene glycol (Sigma-Aldrich), 17% v/v dimethyl sulfoxide (DMSO, Sigma-Aldrich), and 56% v/v deionized water (MilliQ® water, Q-Pod®, EMD Millipore). After vigorous vortexing, the formulation was sterile filtered through a […] cellulose acetate filter (Corning Inc., Corning, NY, USA) then drawn into 60 mL syringes. The IV formulation was prepared 24 h before administration and stored at room temperature. […] To ensure that the vehicle was not toxic, safety testing was performed on a trial IV dose given to a different horse.
Some individual horses had test results that were slightly above or below the established reference intervals, but this likely represented normal biological variability. […] Again, we attributed this to normal biological variation.

[2] = cats, cited from earlier work
[3] = other animals; cited from earlier work
[4] = chimpanzees; cited from earlier work
[5] = Pharmacokinetics of apixaban after oral and intravenous administration; plasma concentrations by UPLC-MS, two-compartment model; format: in vivo; settings: horses; for half-life / clearance / Vd: iv
Protocol: The first and last treatments for each horse were IV administration of drug or placebo (Figure 1). […] Investigators were blinded to each treatment until the conclusion of the study.
Blood samples were collected before drug administration (time 0) and at 3 (IV) or 15 (PO) min, then at 30, 45 min, 1, 2, 3, 4, 6, 8, and 24 h after drug administration into 6-mL syringes (Monoject Syringe, Covidien Ltd, Mansfield, MA, USA) prefilled with 3.8% citrate anticoagulant (Sigma-Aldrich, St Louis, MO, USA) maintaining a ratio of 9:1 blood:citrate. The citrate-anticoagulated blood was used to prepare platelet-poor plasma (PPP) for measurement of UPLC-MS concentrations, anti-Xa activities and dilute prothrombin times (dPT) and platelet-rich plasma (PRP) for flow cytometric analysis of ex vivo platelet activation in response to exposure to EHV-1. Blood was also collected into EDTA- and non-anticoagulant samples for clinical pathologic testing before and 24 h after each treatment (Figure 1). With the exception of 24 h samples, blood was collected at each time point through an indwelling jugular catheter (14 G × 15 cm, Milacath®, MILA International, Florence, KY, USA) after removing 20–30 mL of blood. Patency of the catheters was maintained by flushes with sterile saline solution (0.9% sodium chloride injection USP, Baxter Healthcare Corporation, Deerfield, IL, USA) after each blood draw. The catheter was removed after collection of the 8 h sample. For IV administration, a second catheter was placed in the opposite jugular vein for bolus drug delivery and removed immediately after drug administration and flushing of the catheter with sterile saline. For the 24 h sample, blood was collected from the jugular vein (the vein contralateral to that used for the indwelling catheter) into a 3.8% citrate anticoagulant prefilled 6-mL syringe via an 18 G needle (Monoject Veterinary Needle, Covidien Ltd, Mansfield, MA, USA) and into EDTA- and non-anticoagulant vacutainers (Becton-Dickinson, Franklin Lakes, NJ, USA) via a vacutainer needle (21 G, Becton-Dickinson Eclipse™ Vacutainer® with pre-attached holder).
This was performed as previously described ([33]). Analysis by UPLC-MS/MS was performed on a 2D UPLC system (Waters Acquity UPLC H-class with 2D Technology System, Waters GmbH, Eschborn, Germany) directly coupled to a Xevo TQ-S tandem mass spectrometer (Waters GmbH, Eschborn, Germany) which was operated in electrospray positive ionization mode. The system control and data acquisition were performed using MassLynx NT 4.1 software with automated data processing by the MassLynx QuanLynx program provided with the instrument. The lower limit of detection for all DOACs of the UPLC-MS/MS method was < 0.2 ng/mL. Since DOAC values < 7 ng/ml were not clinically relevant, all time points below this value were considered zero.
Pharmacokinetic analysis was performed using a two-compartment open model with weighting of 1/y^2 (Phoenix®, WinNonlin® software, Certara Inc., St. Louis, Missouri).
Secondary parameters calculated include distribution (α) and elimination (β) half-lives (T½), microdistribution rate constants, area-under-the-curve (AUC), apparent volume of distribution at steady-state (VSS), systemic clearance (CL), and mean residence time (MRT).

[6] = Clinical pathologic testing: automated hemogram; format: in vivo; settings: horses, 24 h after PO or IV administration
Protocol: Automated hemogram results were obtained from the EDTA-anticoagulated blood with a hematology analyzer (ADVIA 2120, Siemens Healthcare Diagnostics Inc., Tarrytown, NJ, USA). To verify the automated platelet counts, modified Wright's-stained blood smears were evaluated for platelet clumps by trained medical technologists. Biochemical analysis for renal analytes (serum urea nitrogen and creatinine concentrations), liver enzymes (sorbitol dehydrogenase, glutamate dehydrogenase, aspartate aminotransferase and gamma glutamyl transferase activities), protein-related analytes (total protein, albumin, and globulin concentrations), and the acute phase protein, serum amyloid A, were performed with an automated chemistry analyzer (Hitachi P modular, Roche Diagnostics, Indianapolis, IN, USA) using manufacturer's reagents, with the exception of sorbitol dehydrogenase (Sigma-Aldrich), glutamate dehydrogenase (Randox Laboratories Ltd, Antrim, UK), and serum amyloid A (LZ test Eiken-SAA, Mast House, Merseyside, UK).

[7] = humans; cited from earlier work
[8] = single oral dose 0.2 mg/kg, 0.2 mg/kg

For `COc1ccc(-n2nc(C(N)=O)c3c2C(=O)N(c2ccc(N4CCCCC4=O)cc2)CC3)cc1` [apixaban], the apixaban protein bound (plasma protein) is given as ~ 60%, the “clinically apparent adverse effects” value ([1]; horses, oral and IV formulations) is given as “no clinically apparent adverse effects” and the “changes in clinical pathologic test results” value ([1]; trial IV dose in a different horse, 24 h after IV bolus) is given as “no changes”. The adverse clinical reactions ([1]; trial IV dose of dissolved apixaban in a different horse) was “no adverse clinical reactions”, the half-life ([2]; 0.2 mg/kg IV dose) was 1.1 h and the Cmax ([2]; IV administration 0.2 mg/kg) was 460 ng/mL. The bioavailability ([2]; oral 0.2 mg/kg) was 85%, the Cmax ([2]; oral administration 0.2 mg/kg) was 74 ng/mL and the “fecal route of elimination, share of the dose” value [3] was “more than 54%”. For the same molecule, the “availability after oral administration” value [4] was 50%, the half-life ([5]; horse, plasma, IV administration, read-out: elimination half-life (converted)) was 1.3 ± 0.2 h and the clearance ([5]; horse, plasma, IV administration, read-out: rate of clearance (converted)) was 2.53 mL/min/kg. For the same molecule, the Vd ([5]; horse, plasma, IV administration, read-out: volume of distribution (VDSS)) was 0.0933 ± 0.0756 L/kg, the Tmax ([5]; horse, plasma, IV administration, read-out: time of peak plasma concentration (converted)) was 3 min and the “volume of distribution (VDSS)” value ([5]; IV administration) was ~ 90 mL/kg. The “time by which plasma apixaban decreased to undetectable levels” value ([5]; IV administration, all horses) was at most 8 h, the “apixaban in plasma after oral administration (UPLC-MS)” value [5, 8] was “no detectable apixaban in plasma; also recorded: not detected in plasma” and the oral absorption [5, 8] was “not orally absorbed”. It also gave a clearance ([5]; plasma, single IV dose […], read-out: CL (systemic clearance), geometric mean (converted)) of 2.45 mL/min/kg, a clearance ([5]; plasma, single IV dose […], read-out: CL (systemic clearance), mean (converted)) of 2.53 mL/min/kg and a Vd ([5]; plasma, single IV dose […], read-out: VC (apparent volume of distribution for central compartment), geometric mean) of 0.0164 L/kg. The Vd ([5]; plasma, single IV dose […], read-out: VC (apparent volume of distribution for central compartment), mean) was 0.0201 L/kg, the Vd ([5]; plasma, single IV dose […], read-out: VSS (volume of distribution at steady-state), geometric mean) was 0.0718 L/kg and the Vd ([5]; plasma, single IV dose […], read-out: VSS (volume of distribution at steady-state), mean) was 0.0933 L/kg. The half-life ([5]; plasma, single IV dose […], read-out: t½β (half-life of the elimination phase), geometric mean (converted)) was 1.27 h, the half-life ([5]; plasma, single IV dose […], read-out: t½β (half-life of the elimination phase), mean (converted)) was 1.28 h and the “changes in hematologic test results” value [6] was “no significant changes”. The “availability after oral administration” value [7] was 50% and the “fecal route of elimination, share of the dose” value [7] was over 46%.
